Source: US5977133A, “Pyridone antibiotic with improved safety profile” (priority 1998, dated 1999)
Counter-ions that a name gives are not always drawn.

Experiments:
Type in all cases: cell-based
S. pneumoniae (PenS) = assay: In vitro MIC, agar dilution; conditions: Streptococcus pneumoniae
E. coli = assay: In vitro MIC, agar dilution; conditions: Escherichia coli, 25 isolates
In short: (§1)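 MIC, the lowest compound level without growth versus a drug-free BHI control plate, with faint haze or scattered colonies scored as no growth. About 10^4 CFU was replicator-spotted from 1:100 dilutions, or 1:10 for slow-growing strains, and plates were read after ~20–24 h at 35–37 °C.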

Salmonella spp. = assay: In vitro MIC, agar dilution; conditions: 23 isolates
In short: as §1

Providencia spp. = assay: In vitro MIC, agar dilution
Enterococcus spp. (VanR) = assay: In vitro MIC, agar dilution
E. faecalis (VanS) = assay: In vitro MIC, agar dilution; conditions: Enterococcus faecalis
S. aureus (CiproR) = assay: In vitro MIC, agar dilution; conditions: Staphylococcus aureus
C. perfringens = assay: microbe, parasite or virus in culture; conditions: Clostridium perfringens
P. aeruginosa (CiproS) = assay: In vitro MIC, agar dilution; conditions: Pseudomonas aeruginosa, P. aeruginosa (CiproS), 24 isolates
B. fragilis = assay: In vitro MIC, agar dilution; conditions: Bacteroides fragilis
M. pneumoniae = assay: In vitro MIC, agar dilution; conditions: Mycoplasmoides pneumoniae; M. pneumoniae, 7 isolates; read-out: MIC Range
S. pyogenes = assay: In vitro MIC, agar dilution; conditions: Streptococcus pyogenes
S. epidermidis (CiproR) = assay: In vitro MIC, agar dilution; conditions: Staphylococcus epidermidis
Enterobacter spp. = assay: In vitro MIC, agar dilution
Shigella spp. = assay: microbe, parasite or virus in culture; conditions: read-out: MIC Range
P. mirabilis = assay: In vitro MIC, agar dilution; conditions: Proteus mirabilis
Klebsiella spp. = assay: In vitro MIC, agar dilution
N. gonorrhoeae = assay: In vitro MIC, agar dilution; conditions: Neisseria gonorrhoeae
S. pneumoniae (PenR) = assay: In vitro MIC, agar dilution; conditions: Streptococcus pneumoniae
E. faecium (CiproS) = assay: In vitro MIC, agar dilution; conditions: Enterococcus faecium
Legionella spp. = assay: microbe, parasite or virus in culture; conditions: Legionella
S. epidermidis (CiproS) = assay: In vitro MIC, agar dilution; conditions: Staphylococcus epidermidis
S. pneumoniae (CiproR) = assay: In vitro MIC, agar dilution; conditions: Streptococcus pneumoniae, read-out: MIC Range
M. catarrhalis = assay: In vitro MIC, agar dilution; conditions: Moraxella catarrhalis
P. aeruginosa (CiproR) = assay: In vitro MIC, agar dilution; conditions: Pseudomonas aeruginosa, P. aeruginosa (CiproR), 20 isolates
E. faecium (VanS) = assay: In vitro MIC, agar dilution; conditions: Enterococcus faecium
E. faecium (CiproR) = assay: In vitro MIC, agar dilution; conditions: Enterococcus faecium; E. faecium (CiproR), 2 isolates; read-out: MIC Range
M. avium = assay: In vitro MIC, agar dilution; conditions: Mycobacterium avium
S. aureus (CiproS) = assay: In vitro MIC, agar dilution; conditions: Staphylococcus aureus
H. influenzae = assay: In vitro MIC, agar dilution; conditions: Haemophilus influenzae, H. influenzae, 18 isolates

Molecule `Cc1c(N2C[C@@H](N)C3(CC3)C2)c(F)cn2c(=O)c(C(=O)O)cc(C3CC3)c12` [Example 5, 1-cyclopropyl-8-(7(S)-amino-5-azaspiror2.41heptvl)-7-fluoro-9-methyl4-oxo-4H-quinolizine-3-carboxylic acid hydrochloride] has an MIC90 (S. pneumoniae (PenS)) of 0.06 µg/mL, an MIC50 (S. pneumoniae (PenS); S. pneumoniae (PenS), 20 isolates, read-out: MIC50) of 0.06 µg/mL and an MIC (S. pneumoniae (PenS); S. pneumoniae (PenS), 20 isolates, read-out: MIC Range) of 0.03 to 0.06 µg/mL. For the same molecule, the MIC (E. coli) was 0.004 to 0.015 µg/mL, the MIC50 (E. coli; read-out: MIC50) was no more than 0.004 µg/mL and the MIC90 (E. coli; read-out: MIC90) was 0.015 µg/mL. It also gave an MIC (Salmonella spp.) of 0.004 to 0.12 µg/mL, an MIC50 (Salmonella spp.; read-out: MIC50) of 0.015 µg/mL and an MIC90 (Salmonella spp.; read-out: MIC90) of 0.03 µg/mL. For the same molecule, the MIC90 (Providencia spp.; Providencia) was 0.06 µg/mL, the MIC50 (Providencia spp.; Providencia spp., 28 isolates, read-out: MIC50) was 0.015 µg/mL and the MIC (Providencia spp.; Providencia spp., 28 isolates, read-out: MIC Range) was 0.008 to 0.25 µg/mL. For the same molecule, the MIC90 (Enterococcus spp. (VanR); Enterococcus) was 0.5 µg/mL, the MIC50 (Enterococcus spp. (VanR); Enterococcus spp. (VanR), 21 isolates, read-out: MIC50) was 0.5 µg/mL and the MIC (Enterococcus spp. (VanR); Enterococcus, read-out: MIC Range) was 0.25 to 4 µg/mL. For the same molecule, the MIC90 (E. faecalis (VanS)) was 0.25 µg/mL, the MIC (E. faecalis (VanS); read-out: MIC Range) was 0.06 to 0.25 µg/mL and the MIC50 (E. faecalis (VanS); E. faecalis (VanS), 17 isolates, read-out: MIC50) was 0.12 µg/mL. The MIC90 (S. aureus (CiproR)) was 0.25 µg/mL, the MIC50 (S. aureus (CiproR); S. aureus (CiproR), 25 isolates, read-out: MIC50) was 0.12 µg/mL and the MIC (S. aureus (CiproR); S. aureus (CiproR), 25 isolates, read-out: MIC Range) was 0.03 to 0.5 µg/mL. It also gave an MIC50 (C. perfringens) of 0.06 µg/mL, an MIC90 (C. perfringens; C. perfringens, 13 isolates) of 0.12 µg/mL and an MIC (C. perfringens; read-out: MIC Range) of 0.06 to 0.12 µg/mL. It also gave an MIC50 (P. aeruginosa (CiproS); read-out: MIC50) of 0.12 µg/mL, an MIC90 (P. aeruginosa (CiproS); read-out: MIC90) of 1 µg/mL and an MIC (P. aeruginosa (CiproS); read-out: MIC Range) of 0.06 to 1 µg/mL. The MIC50 (B. fragilis) was 0.03 µg/mL, the MIC90 (B. fragilis) was 0.03 µg/mL and the MIC (B. fragilis; B. fragilis, 18 isolates, read-out: MIC Range) was 0.015 to 0.06 µg/mL. The MIC (M. pneumoniae) was 0.015 to 0.03 µg/mL, the MIC50 (S. pyogenes) was 0.03 µg/mL and the MIC90 (S. pyogenes) was 0.03 µg/mL. The MIC (S. pyogenes; S. pyogenes, 21 isolates, read-out: MIC Range) was 0.015 to 0.06 µg/mL, the MIC90 (S. epidermidis (CiproR)) was 0.25 µg/mL and the MIC (S. epidermidis (CiproR); read-out: MIC Range) was 0.12 to 1 µg/mL. For the same molecule, the MIC50 (S. epidermidis (CiproR); S. epidermidis (CiproR), 11 isolates, read-out: MIC50) was 0.25 µg/mL, the MIC90 (Enterobacter spp.; Enterobacter) was 0.03 µg/mL and the MIC50 (Enterobacter spp.; Enterobacter spp., 35 isolates, read-out: MIC50) was 0.015 µg/mL. It also gave an MIC (Enterobacter spp.; Enterobacter spp., 35 isolates, read-out: MIC Range) of 0.004 to 0.12 µg/mL, an MIC (Shigella spp.) of 0.001 to 0.008 µg/mL and an MIC50 (P. mirabilis) of 0.03 µg/mL. For the same molecule, the MIC90 (P. mirabilis) was 0.06 µg/mL, the MIC (P. mirabilis; read-out: MIC Range) was 0.015 to 0.12 µg/mL and the MIC50 (Klebsiella spp.; Klebsiella) was 0.03 µg/mL. It also gave an MIC90 (Klebsiella spp.; Klebsiella) of 0.06 µg/mL, an MIC (Klebsiella spp.; Klebsiella spp., 29 isolates, read-out: MIC Range) of 0.002 to 0.12 µg/mL and an MIC90 (N. gonorrhoeae) of 0.015 µg/mL. For the same molecule, the MIC50 (N. gonorrhoeae; N. gonorrhoeae, 12 isolates, read-out: MIC50) was 0.002 µg/mL, the MIC (N. gonorrhoeae; N. gonorrhoeae, 12 isolates, read-out: MIC Range) was 0.002 to 0.015 µg/mL and the MIC90 (S. pneumoniae (PenR)) was 0.06 µg/mL. For the same molecule, the MIC50 (S. pneumoniae (PenR); S. pneumoniae (PenR), 25 isolates, read-out: MIC50) was 0.06 µg/mL, the MIC (S. pneumoniae (PenR); S. pneumoniae (PenR), 25 isolates, read-out: MIC Range) was 0.03 to 0.06 µg/mL and the MIC90 (E. faecium (CiproS)) was 0.5 µg/mL. The MIC (E. faecium (CiproS); read-out: MIC Range) was 0.25 to 0.5 µg/mL, the MIC50 (E. faecium (CiproS); E. faecium (CiproS), 16 isolates, read-out: MIC50) was 0.5 µg/mL and the MIC50 (Legionella spp.) was 0.25 µg/mL. The MIC90 (Legionella spp.) was 0.25 µg/mL, the MIC (Legionella spp.; read-out: MIC Range) was 0.12 to 0.25 µg/mL and the MIC90 (S. epidermidis (CiproS)) was 0.03 µg/mL. For the same molecule, the MIC50 (S. epidermidis (CiproS); S. epidermidis (CiproS), 23 isolates, read-out: MIC50) was 0.015 µg/mL, the MIC (S. epidermidis (CiproS); S. epidermidis (CiproS), 23 isolates, read-out: MIC Range) was 0.004 to 0.03 µg/mL and the MIC (S. pneumoniae (CiproR)) was 0.06 to 0.12 µg/mL. The MIC90 (M. catarrhalis) was 0.03 µg/mL, the MIC50 (M. catarrhalis; M. catarrhalis, 18 isolates, read-out: MIC50) was 0.015 µg/mL and the MIC (M. catarrhalis; M. catarrhalis, 18 isolates, read-out: MIC Range) was 0.015 to 0.03 µg/mL. The MIC50 (P. aeruginosa (CiproR); read-out: MIC50) was 8 µg/mL, the MIC90 (P. aeruginosa (CiproR); read-out: MIC90) was 16 µg/mL and the MIC (P. aeruginosa (CiproR); read-out: MIC Range) was 4 to 16 µg/mL. The MIC90 (E. faecium (VanS)) was 0.25 µg/mL, the MIC (E. faecium (VanS); read-out: MIC Range) was 0.06 to 0.5 µg/mL and the MIC50 (E. faecium (VanS); E. faecium (VanS), 11 isolates, read-out: MIC50) was 0.25 µg/mL. It also gave an MIC (E. faecium (CiproR)) of 0.5 to 4 µg/mL, an MIC (M. avium; read-out: MIC Range) of 0.25 to 4 µg/mL and an MIC50 (M. avium; M. avium, 20 isolates, read-out: MIC50) of 1 µg/mL. It also gave an MIC90 (M. avium; M. avium, 20 isolates, read-out: MIC90) of 2 µg/mL, an MIC90 (S. aureus (CiproS)) of 0.015 µg/mL and an MIC50 (S. aureus (CiproS); S. aureus (CiproS), 21 isolates, read-out: MIC50) of 0.015 µg/mL. It also gave an MIC (S. aureus (CiproS); S. aureus (CiproS), 21 isolates, read-out: MIC Range) of 0.008 to 0.03 µg/mL, an MIC50 (H. influenzae; read-out: MIC50) of 0.002 µg/mL and an MIC90 (H. influenzae; read-out: MIC90) of 0.008 µg/mL. For the same molecule, the MIC (H. influenzae; read-out: MIC Range) was 0.001 to 0.008 µg/mL.
